From the Kinase Knowledgebase extract (Sharma et al. 2016) come the findings set out here.

Values after ≈ are worked out from the molar mass of the structure shown. Values joined by “and” are separate entries in the source; they are usually repeats but may differ in a detail not shown here. Equal values may be shown once.

Sequence of EGFR (P00533 whole entry, looked up): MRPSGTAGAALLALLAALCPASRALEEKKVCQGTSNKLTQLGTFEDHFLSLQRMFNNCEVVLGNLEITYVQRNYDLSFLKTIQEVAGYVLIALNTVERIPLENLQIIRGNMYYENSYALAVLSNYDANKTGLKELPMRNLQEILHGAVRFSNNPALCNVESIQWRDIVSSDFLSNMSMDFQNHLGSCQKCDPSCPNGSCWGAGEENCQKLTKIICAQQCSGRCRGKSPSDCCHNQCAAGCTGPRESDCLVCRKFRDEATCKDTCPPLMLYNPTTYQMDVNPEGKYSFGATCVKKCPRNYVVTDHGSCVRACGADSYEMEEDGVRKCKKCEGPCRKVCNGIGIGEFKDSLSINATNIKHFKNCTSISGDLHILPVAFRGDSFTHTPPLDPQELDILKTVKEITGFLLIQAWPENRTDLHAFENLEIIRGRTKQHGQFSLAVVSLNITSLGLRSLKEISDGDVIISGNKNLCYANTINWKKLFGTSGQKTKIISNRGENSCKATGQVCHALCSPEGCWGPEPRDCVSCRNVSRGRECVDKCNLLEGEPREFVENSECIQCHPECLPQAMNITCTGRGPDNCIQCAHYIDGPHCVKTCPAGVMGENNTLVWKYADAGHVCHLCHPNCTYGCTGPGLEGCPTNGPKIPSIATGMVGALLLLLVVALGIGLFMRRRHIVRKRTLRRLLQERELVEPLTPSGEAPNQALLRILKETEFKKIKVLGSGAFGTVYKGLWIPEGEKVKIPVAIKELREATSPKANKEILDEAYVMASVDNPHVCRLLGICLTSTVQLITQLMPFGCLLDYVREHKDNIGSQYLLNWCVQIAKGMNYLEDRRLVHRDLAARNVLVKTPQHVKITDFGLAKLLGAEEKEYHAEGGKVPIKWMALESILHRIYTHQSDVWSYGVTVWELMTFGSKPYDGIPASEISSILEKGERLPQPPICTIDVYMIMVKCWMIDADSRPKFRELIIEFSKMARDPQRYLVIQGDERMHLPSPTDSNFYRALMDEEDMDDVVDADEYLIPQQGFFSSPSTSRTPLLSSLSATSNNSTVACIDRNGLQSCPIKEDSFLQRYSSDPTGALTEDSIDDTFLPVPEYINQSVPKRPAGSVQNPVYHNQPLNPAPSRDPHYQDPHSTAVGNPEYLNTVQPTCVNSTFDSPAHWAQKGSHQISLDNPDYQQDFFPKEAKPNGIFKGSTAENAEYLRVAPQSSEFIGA

This experiment has as its target EGFR (UniProt P00533).
In turn, `Nc1nc2ccccc2n1-c1ncnc(Nc2ccccn2)n1` registered an IC50 of over 4.5 µg/mL.

In turn, `COc1cc(Nc2ncnc(-c3ccnc(Cl)c3)n2)cc(OC)c1OC` gave an IC50 of over 4.5 µg/mL. Consider `Clc1cccc(Nc2ncnc(Nc3cc(-c4ccccc4)n[nH]3)n2)c1`, for which the IC50 is under 0.4 µg/mL. The value for `COc1cc(Nc2ncnc(Nc3[nH]ncc3-c3ccccc3)n2)cc(OC)c1OC` was over 4.5 µg/mL; that for `COc1ccc(Nc2ncnc(Nc3ccc4c(c3)C(=O)N(C)C4=O)n2)cc1OC` was over 4.5 µg/mL. The compound `COc1cc(Nc2ncnc(-n3c(NCc4cccc([N+](=O)[O-])c4)nc4ccccc43)n2)cc(OC)c1OC` had an IC50 of over 4.5 µg/mL. On to `COC(=O)n1c(=O)n(-c2ncnc(Nc3cc(OC)c(OC)c(OC)c3)n2)c2ccccc21`, for which the IC50 was over 4.5 µg/mL.

`O=c1[nH]c2ccccc2n1-c1ncnc(Nc2cccc(OC(F)(F)F)c2)n1` yielded an IC50 of over 4.5 µg/mL. For the compound `COc1ccc(Nc2ncnc(N(C)C3CCCCC3)n2)cc1OC`, the IC50 is under 0.4 µg/mL. `COc1cc(Nc2ncnc(-n3cnc4ccccc43)n2)cc(OC)c1OC`: the half-inhibitory concentration (IC50) lay within 3.5 to 4.5 µg/mL (≈ 9.25 to 11.9 µM).

The compound `COc1cc(Nc2ncnc(Nc3c(C)n(C)n(-c4ccccc4)c3=O)n2)cc(OC)c1OC` came in with an IC50 of over 4.5 µg/mL. With `Nc1nc2ccccc2n1-c1ncnc(Nc2cccc(-c3cnco3)c2)n1`, the half-maximal inhibitory concentration (IC50) is 0.4 to 2.4 µg/mL (≈ 1.08 to 6.48 µM). Consider `COc1cc(Nc2ncnc(Nc3ccc(C(C)=O)cc3)n2)cc(OC)c1OC`, for which the IC50 was 2.4 to 3.5 µg/mL (≈ 6.07 to 8.85 µM). In turn, `COc1cc(Nc2ncnc(-n3c(NCc4ncccc4C)nc4ccccc43)n2)cc(OC)c1OC` registered an IC50 of over 4.5 µg/mL. `COc1cc2ccn(-c3ncnc(Nc4cc(OC)c(OC)c(OC)c4)n3)c2cc1OC` registered an IC50 of 3.5 to 4.5 µg/mL (≈ 8 to 10.3 µM). The value for `COC(=O)C(c1ccccc1)c1ncnc(Nc2cc(OC)c(OC)c(OC)c2)n1` (stereo not drawn) was over 4.5 µg/mL; that for `COc1cc(Nc2ncnc(NN3CCOCC3)n2)cc(OC)c1OC` was over 4.5 µg/mL. The value for `COc1cc(Nc2ncnc(-n3c(N)nc4ccccc43)n2)cc(OCCN2CCOCC2)c1OC` was over 4.5 µg/mL; that for `COc1cc(Nc2ncnc(-c3cccnc3Cl)n2)cc(OC)c1OC` was over 4.5 µg/mL. In the case of `COc1cc(Nc2ncnc(-n3c(NC4CCc5ccccc54)nc4ccccc43)n2)cc(OC)c1OC` (stereo not drawn), the IC50 fell in the range of 2.4 to 3.5 µg/mL (≈ 4.71 to 6.87 µM). `COc1ccc(CNc2nc3ccccc3n2-c2ncnc(Nc3cccc(CC(=O)O)c3)n2)cc1`: the IC50 is over 4.5 µg/mL. Next, `COc1cc(Nc2ncnc(-n3c(NCc4ccc([N+](=O)[O-])cc4)nc4ccccc43)n2)cc(OC)c1OC`: over 4.5 µg/mL; `COc1cc(Nc2ncnc(-n3c(NCc4cccc(Cl)c4)nc4ccccc43)n2)cc(OC)c1OC`: over 4.5 µg/mL. Next, `NCCCNc1ncnc(-c2ccccc2)n1`: over 4.5 µg/mL; `COc1cc(Nc2ncnc(-n3c(NCCCc4ccccc4)nc4ccccc43)n2)cc(OC)c1OC`: over 4.5 µg/mL; `COc1cc(Nc2ncnc(-c3ccc(N4CCOCC4)nc3)n2)cc(OC)c1OC`: over 4.5 µg/mL. As for `CN(c1cccc(Cl)c1)c1ncnc(Nc2cc(C(C)(C)C)on2)n1`, the IC50 is over 4.5 µg/mL. As to `COc1cc(Nc2nc(F)nc(Nc3cccc(OC(F)(F)F)c3)n2)cc(OC)c1OC`, the IC50 is under 0.4 µg/mL. The compound `COc1cc(Nc2ncnc(Nc3ccc4c(c3)OCO4)n2)cc(OC)c1OC` showed an IC50 of 0.4 to 2.4 µg/mL (≈ 1.01 to 6.04 µM). The value for `COc1cc(Nc2ncnc(-n3c(NCCc4ccncc4)nc4ccccc43)n2)cc(OC)c1OC` was over 4.5 µg/mL. The value for `O=c1[nH]c2ccccc2n1-c1ncnc(Nc2cnc3ccccc3c2)n1` was over 4.5 µg/mL. With `CC(=O)NS(=O)(=O)c1ccc(Nc2ncnc(-n3c(=O)[nH]c4ccccc43)n2)cc1`, the IC50 is over 4.5 µg/mL. In turn, `COc1ccc2c(c1)c(CCN(C)C)cn2-c1ncnc(Nc2cc(OC)c(OC)c(OC)c2)n1` showed an IC50 of over 4.5 µg/mL. Next, `O=c1[nH]c2ccccc2n1-c1ncnc(Nc2cccc3ccccc23)n1`: over 4.5 µg/mL; `COc1cc(Nc2ncnc(Nc3ccc(C(N)=O)cc3)n2)cc(OC)c1OC`: over 4.5 µg/mL; `NC(=O)c1ccc(Nc2ncnc(-c3cccnc3NCc3ccccc3)n2)cc1`: 0.4 to 2.4 µg/mL (≈ 1.01 to 6.04 µM). The compound `COCCNc1ncnc(Nc2cc(-c3ccc(C(=O)OC)cc3)n[nH]2)n1` returned an IC50 of over 4.5 µg/mL. Next, `COc1cc(Nc2ncnc(-n3c(NC(C)=O)nc4ccccc43)n2)cc(OC)c1OC`: over 4.5 µg/mL; `C=CCN(c1cccc(Cl)c1)c1ncnc(Nc2cc(OC)cc(OC)c2)n1`: under 0.4 µg/mL. `COC(=O)c1ccc(-c2cc(Nc3ncnc(NCCc4ccc(OC)cc4)n3)[nH]n2)cc1` gave an IC50 of over 4.5 µg/mL. The value for `COc1cc(Nc2ncnc(-n3c(NCc4ccccn4)nc4ccccc43)n2)cc(OC)c1OCCN1CCOCC1` was over 4.5 µg/mL; that for `NC(=O)Cc1cccc(Nc2ncnc(-n3c(N)nc4ccccc43)n2)c1` was over 4.5 µg/mL. Next, `COc1cc(Nc2ncnc(-n3c(NCC(C)C)nc4ccccc43)n2)cc(OC)c1OC`: over 4.5 µg/mL; `c1ccc(Cn2ncc3cc(Nc4ncnc(Nc5ccc6ncsc6c5)n4)ccc32)cc1`: under 0.4 µg/mL. As for `COc1cc(Nc2ncnc(N3c4ccccc4CC3C)n2)cc(OC)c1OC` (stereo not drawn), the IC50 was 0.4 to 2.4 µg/mL (≈ 1.02 to 6.1 µM). Next, `Nc1nc2ccccc2n1-c1ncnc(Cl)n1`: over 4.5 µg/mL; `COc1cccc(NC(=O)Nc2ncnc(Nc3cc(OC)c(OC)c(OC)c3)n2)c1`: over 4.5 µg/mL; `COc1ccc(Nc2ncnc(Nc3ccc4c(c3)C(=O)OC4)n2)cc1OC`: 2.4 to 3.5 µg/mL (≈ 6.33 to 9.23 µM).

On to `COc1ccc(Nc2ncnc(Nc3ccc(N(C)C)cc3)n2)cc1OC`, for which the IC50 was over 4.5 µg/mL.

Regarding `CC(C)(C)OC(=O)NCc1cccc(Nc2ncnc(Nc3cc(-c4ccccc4)n[nH]3)n2)c1`, the IC50 was 2.4 to 3.5 µg/mL (≈ 5.23 to 7.63 µM).

`COc1cc(Nc2ncnc(Nc3ccc(N(C)C)cc3)n2)cc(OC)c1OC` had a 50% inhibitory concentration (IC50) of 2.4 to 3.5 µg/mL (≈ 6.05 to 8.83 µM). Turning to `CCOC(=O)Cc1ccc(Nc2ncnc(Nc3cc(OC)c(OC)c(OC)c3)n2)cc1`, the IC50 is under 0.4 µg/mL. In turn, `Cc1ccc2c(c1)CCCN2c1ncnc(Nc2ccc3c(c2)C(=O)OC3)n1` yielded an IC50 of under 0.4 µg/mL. `COc1ccc(N(C)c2ncnc(Nc3cc(OC)c(OC)c(OC)c3)n2)cc1` came in with an IC50 of 0.4 to 2.4 µg/mL (≈ 1.01 to 6.04 µM).

The compound `CC(C)(C)OC(=O)Nc1ccc(Nc2ncnc(Nc3ccc(OCc4ccccc4)cc3)n2)cc1` displayed a concentration for half-maximal inhibition (IC50) of over 4.5 µg/mL. For `COC(=O)c1ccc(-c2cc(Nc3ncnc(NCc4ccccc4OC)n3)[nH]n2)cc1`, the IC50 was over 4.5 µg/mL.

For `c1ccc(-c2cc(Nc3ncnc(Nc4cccc(-c5cnco5)c4)n3)[nH]n2)cc1`, the IC50 lay within 0.4 to 2.4 µg/mL (≈ 1.01 to 6.05 µM). In turn, `COc1ccc(Nc2ncnc(Nc3cccc(Br)c3)n2)cc1OC` showed an IC50 of under 0.4 µg/mL.

Turning to `c1csc(-c2ncnc(Nc3ccc(N4CCOCC4)cc3)n2)c1`, the IC50 was over 4.5 µg/mL.

For `FC(F)C(F)(F)Oc1cccc(Nc2ncnc(-c3ccnc(Cl)c3)n2)c1`, the IC50 is over 4.5 µg/mL. In turn, `COC(=O)c1ccc(-c2cc(Nc3ncnc(Nc4cccc(CC(=O)O)c4)n3)[nH]n2)cc1` registered an IC50 of 0.4 to 2.4 µg/mL (≈ 0.898 to 5.39 µM). The value for `COc1ccc2c(c1)nc(NCc1ccccc1)n2-c1ncnc(Nc2cc(OC)c(OC)c(OC)c2)n1.COc1ccc2nc(NCc3ccccc3)n(-c3ncnc(Nc4cc(OC)c(OC)c(OC)c4)n3)c2c1` was 0.4 to 2.4 µg/mL; that for `Nc1ncnc(Nc2cccc(C(F)(F)F)c2)n1` was over 4.5 µg/mL. `COc1cc(Nc2ncnc(Nc3ccc(C(C)C)cc3)n2)cc(OC)c1OC` showed an IC50 of over 4.5 µg/mL. For `COc1ccc(CNc2ncccc2-c2ncnc(Nc3cc(OC)c(OC)c(OC)c3)n2)cc1`, the IC50 is over 4.5 µg/mL. Next, `Cc1ccc2c(c1)CCCN2c1ncnc(Nc2cccc(Cc3nnn[nH]3)c2)n1`: under 0.4 µg/mL; `CN(c1cccc(Cl)c1)c1ncnc(Nc2cccc(Br)c2)n1`: under 0.4 µg/mL. In turn, `COc1cc(Nc2ncnc(-n3ccc4cc(Cl)ccc43)n2)cc(OC)c1OC` gave an IC50 of over 4.5 µg/mL. Compound `COc1cc(Nc2ncnc(N(C)c3cccc(Cl)c3)n2)cc2ccccc12` returned an IC50 of under 0.4 µg/mL. Next, `COc1cc(Nc2ncnc(Nc3cc(C)nn3C)n2)cc(OC)c1OC`: 3.5 to 4.5 µg/mL and > 4.5 µg/mL.

Compound `Cc1cccc(Nc2ncnc(Nc3cccc(Br)c3)n2)c1` returned an IC50 of under 0.4 µg/mL. Consider `COc1cc(Nc2ncnc(-c3c(O)[nH]c4ccccc34)n2)cc(OC)c1OC`, for which the IC50 was over 4.5 µg/mL. In turn, `COc1cc(Nc2ncnc(-c3cccnc3NC(C)c3ccccc3)n2)cc(OC)c1OC` (stereo not drawn) gave an IC50 of over 4.5 µg/mL. Next, `c1coc(-c2cc(Nc3ncnc(Nc4ccc(N5CCOCC5)cc4)n3)[nH]n2)c1`: 2.4 to 3.5 µg/mL (≈ 5.93 to 8.65 µM). The compound `COc1ccccc1Nc1ncnc(-c2ccccc2)n1` showed an IC50 of over 4.5 µg/mL. Next, `O=c1[nH]c2ccccc2n1-c1ncnc(Nc2cccc(-c3cnco3)c2)n1`: 0.4 to 2.4 µg/mL (≈ 1.08 to 6.46 µM); `COc1ccc(Nc2ncnc(Nc3cc(OC)c(OC)c(OC)c3)n2)cc1O`: under 0.4 µg/mL; `COC(=O)c1ccc(-c2cc(Nc3ncnc(Nc4ccc(N5CCOCC5)cc4)n3)[nH]n2)cc1`: 3.5 to 4.5 µg/mL (≈ 7.41 to 9.52 µM). As to `COC(=O)c1ccc(-c2cc(Nc3ncnc(Nc4cccc(CC(N)=O)c4)n3)[nH]n2)cc1`, the IC50 lay within 3.5 to 4.5 µg/mL (≈ 7.87 to 10.1 µM). Compound `CN(c1ccccc1)c1ncnc(-n2c(N)nc3ccccc32)n1` came in with an IC50 of 2.4 to 3.5 µg/mL (≈ 7.56 to 11 µM). Compound `Clc1ncnc(Nc2cc(-c3ccccc3)n[nH]2)n1` registered an IC50 of over 4.5 µg/mL.

`CC1CCc2ccccc2N1c1ncnc(N2c3ccccc3CCC2C)n1` (stereo not drawn) gave an IC50 of 2.4 to 3.5 µg/mL (≈ 6.46 to 9.42 µM). The value for `COc1ccc(Nc2ncnc(NCCNC(C)=O)n2)cc1OC` was over 4.5 µg/mL.

In the case of `COc1cc(Nc2ncnc(N3CCCc4cc(C)ccc43)n2)cc(OC)c1OC`, the IC50 is under 0.4 µg/mL.

`Cc1ccc2c(c1)CCCN2c1ncnc(NCCN2CCOCC2)n1` displayed a 50% inhibitory concentration (IC50) of over 4.5 µg/mL. `COc1cc(Nc2ncnc(N(CCO)c3ccccc3)n2)cc(OC)c1OC` displayed an IC50 of under 0.4 µg/mL. The value for `COc1ccc(Nc2ncnc(NCCCOC(C)C)n2)cc1OC` was over 4.5 µg/mL; that for `Cc1ccc(Nc2ncnc(N)n2)cc1` was over 4.5 µg/mL.

As for `COc1cc(Nc2ncnc(-n3c(OCc4ccccn4)nc4ccccc43)n2)cc(OC)c1OC`, the IC50 was over 4.5 µg/mL. The value for `COc1cc(Nc2ncnc(Nc3ccc(Cl)c4ccccc34)n2)cc(OC)c1OC` was under 0.4 µg/mL; that for `Fc1ccc(Nc2ncnc(Nc3ccc4[nH]ccc4c3)n2)cc1Cl` was under 0.4 µg/mL; that for `COc1ccc(Nc2ncnc(NCCCN3CCN(C)CC3)n2)cc1OC` was over 4.5 µg/mL. Compound `COc1cc(Nc2ncnc(-n3c(NCCc4ccccc4)nc4ccccc43)n2)cc(OC)c1OC` returned an IC50 of 0.4 to 2.4 µg/mL (≈ 0.804 to 4.82 µM).
